Tests used:
estrogen receptor = target: T1, estrogen receptor (Homo sapiens, UniProt P03372); assay: Western blot of estrogen receptor downregulation (FIG. 4); type: cell-based; settings: 10 nM concentrations
T1 construct: Whole-cell extracts of cultured cells were prepared in lysis buffer; endogenous in cells
T1 sequence (P03372 1-595): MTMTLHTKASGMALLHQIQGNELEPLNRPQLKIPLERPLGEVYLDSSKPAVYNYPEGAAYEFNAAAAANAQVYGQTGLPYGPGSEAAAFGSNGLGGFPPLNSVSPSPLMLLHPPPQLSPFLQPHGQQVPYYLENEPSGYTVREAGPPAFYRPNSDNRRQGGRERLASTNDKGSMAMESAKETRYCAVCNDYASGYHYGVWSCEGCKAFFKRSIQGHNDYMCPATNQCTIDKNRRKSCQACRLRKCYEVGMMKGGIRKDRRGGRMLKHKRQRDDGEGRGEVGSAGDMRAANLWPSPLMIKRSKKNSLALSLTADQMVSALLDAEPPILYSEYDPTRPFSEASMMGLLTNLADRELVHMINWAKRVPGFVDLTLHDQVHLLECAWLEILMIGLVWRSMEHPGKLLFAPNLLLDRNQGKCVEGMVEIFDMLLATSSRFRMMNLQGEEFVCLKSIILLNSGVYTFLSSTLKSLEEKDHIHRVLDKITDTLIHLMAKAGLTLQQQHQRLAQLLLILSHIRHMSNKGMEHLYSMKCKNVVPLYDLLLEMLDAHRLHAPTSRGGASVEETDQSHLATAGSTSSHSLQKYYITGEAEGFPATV
Experimental: Whole-cell extracts of cultured cells were prepared in lysis buffer (200 mmol/L Tris, 1% Triton X-100, 5 mmol/L; EDTA) with protease and phosphatase inhibitor cocktails (1:50, both from Sigma-Aldrich) after scraping from the culture plates. Protein concentration was measured using the Bradford method (Bio-Rad). Proteins were separated under denaturing conditions and blotted onto nitrocellulose membrane (Bio-Rad) using a wet transfer system (Bio-Rad). Images of blots were acquired on a Bio-Rad ChemiDoc System following incubation with SuperSignal West Dura luminol solution (Thermo Fisher Scientific).

[1] = Mouse plasma concentration after oral administration; type: in vivo; settings: average of three mice; for concentration at 0.5 h: 0.5 h after oral gavage at 100 mg/kg; for concentration at 4 h: 4 h after oral gavage at 100 mg/kg
ERα = target: T2, ERα (Homo sapiens, UniProt P03372); assay: ER downregulation/degradation by in-cell western (ICW) in MCF-7:WS8 cells; type: cell-based; settings: Table 2; read-out: IC50 of ER downregulation from in-cell western blot experiments
T2 construct: MCF-7:WS8 cells were kept in stripped medium 2 days; endogenous in cells; host or cells: MCF-7:WS8
T2 sequence (P03372 1-595): T1 sequence (P03372 1-595)

MCF-7:Tam1 tumors = assay: MCF-7:TAM1 xenograft model of endocrine-resistant ER+ breast cancer; type: in vivo, ovariectomized athymic nude mice; settings: 100 mg/kg daily by oral gavage; GDN-0810 at day 23 after treatment

Row | SMILES | Estrogen receptor downregulation, western blot (estrogen receptor) | concentration at 0.5 h [1] [nM] | concentration at 4 h [1] [nM] | other results
1 | Cc1cc(F)ccc1C(=O)c1sc2cc(O)ccc2c1Oc1ccc(/C=C/C(=O)O)cc1 [Compound 1, (E)-3-(4-((2-(4-Fluoro-2-methylbenzoyl)-6-hydroxybenzo[b]thiophen-3-yl)oxy)phenyl)acrylic acid] | downregulate the estrogen receptor | 1240 | 145 | –
2 | CCc1ccccc1C(=O)c1sc2cc(O)ccc2c1Oc1ccc(/C=C/C(=O)O)cc1 [Compound 3, (E)-3-(4-((2-(2-Ethylbenzoyl)-6-hydroxybenzo[b]thiophen-3-yl)oxy)phenyl) acrylic acid] | downregulate the estrogen receptor | – | – | –
3 | O=C(O)/C=C/c1ccc(Oc2c(C(=O)c3ccccc3)sc3cc(O)ccc23)cc1 [Compound 4, (E)-3-(4-((2-Benzoyl-6-hydroxybenzo[b]thiophen-3-yl)oxy)phenyl) acrylic acid] | – | – | – | DC50 (ERα): 5 nM
4 | Cc1ccccc1C(=O)c1sc2cc(O)ccc2c1Oc1ccc(/C=C/C(=O)O)cc1 [Compound 5, (E)-3-(4-((6-Hydroxy-2-(2-methylbenzoyl)benzo[b]thiophen-3-yl)oxy)phenyl) acrylic acid] | downregulate the estrogen receptor | 5580 | 47 | –
5 | Cc1ccc(F)cc1C(=O)c1sc2cc(O)ccc2c1Oc1ccc(/C=C/C(=O)O)cc1 [Compound 6, (E)-3-(4-((2-(5-Fluoro-2-methylbenzoyl)-6-hydroxybenzo[b]thiophen-3-yl)oxy)phenyl) acrylic acid] | downregulate the estrogen receptor | – | – | –
6 | Cc1ccsc1C(=O)c1sc2cc(O)ccc2c1Oc1ccc(/C=C/C(=O)O)cc1 [Compound 7, (E)-3-(4-((6-Hydroxy-2-(3-methylthiophene-2-carbonyl)benzo[b]thiophen-3-yl)oxy)phenyl) acrylic acid] | downregulate the estrogen receptor | – | – | –
7 | Cc1cccc(C)c1C(=O)c1sc2cc(O)ccc2c1Oc1ccc(/C=C/C(=O)O)cc1 [Compound 11, (E)-3-(4-((2-(2,6-Dimethylbenzoyl)-6-hydroxybenzo[b]thiophen-3-yl)oxy)phenyl) acrylic acid] | – | 1010 | 0.5 | –
8 | Cc1ccc(C(=O)c2sc3cc(O)ccc3c2Oc2ccc(/C=C/C(=O)O)cc2)c(C)c1 [Compound 12, (E)-3-(4-((2-(2,4-Dimethylbenzoyl)-6-hydroxybenzo[b]thiopben-3-yl)oxy)phenyl) acrylic acid] | – | 3870 | 432 | –
9 | Cc1cc(F)cc(C)c1C(=O)c1sc2cc(O)ccc2c1Oc1ccc(/C=C/C(=O)O)cc1 [Compound 20, (E)-3-(4-((2-(4-Fluoro-2,6-dimethylbenzoyl)-6-hydroxybenzo[b]thiophen-3-yl)oxy)phenyl) acrylic acid] | – | 9720 | 164 | –
10 | Cc1cc(Cl)cc(C)c1C(=O)c1sc2cc(O)ccc2c1Oc1ccc(/C=C/C(=O)O)cc1 [Compound 21, (E)-3-(4-((2-(4-Chloro-2,6-dimethylbenzoyl)-6-hydroxybenzo[b]thiophen-3-yl)oxy)phenyl) acrylic acid] | – | – | 858 | –
11 | CC/C(=C(\c1ccccc1)c1ccc(OCCN(C)C)cc1)c1ccccc1 [Tamoxifen] | – | – | – | Regression of tumor size (tumor area reduction) (MCF-7:Tam1 tumors): entirely without effect
